Results from ChEMBL document CHEMBL2163201, “Discovery of novel pyrrolopyridazine scaffolds as transient receptor potential vanilloid (TRPV1) antagonists” (Bioorg Med Chem Lett, 2012).
Values after ≈ are worked out from the molar mass of the structure shown.

test: Equilibrium solubility of the compound in DMSO preincubated for 4 hrs; assay type: physicochemical; conditions: not given

Row | SMILES | solubility at 4 h [µM]
1 | O=C(c1cc2cccnn2c1-c1cccc(C(F)(F)F)c1)N1CCC[C@H]1CO | 360 (≈ 140 µg/mL)
2 | CCN(CCO)C(=O)c1cc2ccncn2c1-c1cccc(C(F)(F)F)c1 | 240 (≈ 90.6 µg/mL)
3 | CCN(CCO)C(=O)c1cc2cccnn2c1Cc1cccc(C(F)(F)F)c1 | 170 (≈ 66.5 µg/mL)
4 | CCN(CCO)C(=O)c1oc2cccnc2c1-c1cccc(C(F)(F)F)c1 | > 400
5 | CCN(Cc1ccn[nH]1)C(=O)c1cc2cccnn2c1-c1cccc(C(F)(F)F)c1 | 150 (≈ 62 µg/mL)
6 | COc1cccc(-c2c(C(=O)N3CCCCC3CO)cc3ccccn23)c1 (stereo unspecified) | 260 (≈ 94.8 µg/mL)
7 | CCN(CCO)C(=O)c1cc2cc(OC)cnn2c1-c1cccc(C(F)(F)F)c1 | 25 (≈ 10.2 µg/mL)
8 | O=C(Cc1cc2cccnn2c1-c1cccc(C(F)(F)F)c1)N1CCC[C@@H]1CO | 220 (≈ 88.7 µg/mL)
9 | CCN(CCO)C(=O)c1cc2cccnn2c1-c1cccc(C(=O)Nc2ccccc2)c1 | 25 (≈ 10.7 µg/mL)
10 | COc1ccc(-c2c(C(=O)N3CCC[C@H]3CO)cc3cccnn23)cc1 | > 400
11 | CCN(CCO)C(=O)c1cc2cccnc2n1-c1cccc(C(F)(F)F)c1 | > 300
12 | CCN(CCO)C(=O)c1cc2cccnn2c1-c1cccc(OC)c1 | 340 (≈ 115 µg/mL)
13 | CCN(CCO)C(=O)c1cc2ccc(C)nn2c1-c1cccc(C(F)(F)F)c1 | 28 (≈ 11 µg/mL)
14 | CCN(CCO)C(=O)c1cc2cc(C)cnn2c1-c1cccc(C(F)(F)F)c1 | 190 (≈ 74.4 µg/mL)
15 | CCN(CCO)C(=O)c1cc2cccnn2c1-c1cccc(C(F)(F)F)c1 | 200 (≈ 75.5 µg/mL)
16 | CCN(CCO)C(=O)c1cc2cccnn2c1-c1cccc(C)c1 | 330 (≈ 107 µg/mL)
17 | CCN(CCO)C(=O)c1cc2ccccn2c1-c1cccc(C(F)(F)F)n1 | 360 (≈ 136 µg/mL)
18 | N#Cc1cccc(-c2c(C(=O)N3CCCCC3CO)cc3ccccn23)c1 (stereo unspecified) | 250 (≈ 89.9 µg/mL)
19 | CCN(CCO)C(=O)c1cc2c(C)ccnn2c1-c1cccc(C(F)(F)F)c1 | 32 (≈ 12.5 µg/mL)
20 | CCN(CCO)C(=O)c1cc2ccccn2c1-c1cccc(OC)c1 | 150 (≈ 50.8 µg/mL)
21 | CCN(CCO)C(=O)c1cc2cccnn2c1-c1ccc(C(F)(F)F)cc1 | 22 (≈ 8.3 µg/mL)
22 | CCN(CCO)C(=O)c1nc2cccnc2n1-c1cccc(C(F)(F)F)c1 | 24 (≈ 9.08 µg/mL)
23 | CCN(CCO)C(=O)c1cc2ccccn2c1-c1cccc(C)c1 | 260 (≈ 83.8 µg/mL)
24 | CCN(CCO)C(=O)c1cc2ccccn2c1-c1cccc(OC)n1 | 190 (≈ 64.5 µg/mL)
25 | CCN(CCO)C(=O)c1nc2ccccn2c1-c1cccc(C(F)(F)F)c1 | 270 (≈ 102 µg/mL)
26 | CCCN(CCO)C(=O)c1cc2ccccn2c1-c1ccccc1 | 280 (≈ 90.3 µg/mL)

test: Apparent permeability across apical to basolateral side of human Caco2 cells; assay type: ADME, cell-based; conditions: Caco-2

Row | SMILES | Papp A→B [×10⁻⁶ cm/s]
27 | COc1cccc(-c2c(C(=O)N3CCCCC3CO)cc3ccccn23)c1 (stereo unspecified) | 58
28 | CCN(CCO)C(=O)c1cc2cccnn2c1-c1cccc(C(F)(F)F)c1 | 42
29 | CCN(CCO)C(=O)c1cc2ccccn2c1-c1cccc(OC)c1 | 54
30 | CCN(CCO)C(=O)c1cc2ccccn2c1-c1cccc(OC)n1 | 56
31 | CCCN(CCO)C(=O)c1cc2ccccn2c1-c1ccccc1 | 60
